Active and inactive are the calls of the source.

What is called CC50 is the concentration that lowers cell viability or growth by half. What is called EC50 is the midpoint of the concentration-response curve. As a reminder, the AC50 is the concentration at which the activity in the assay is half-maximal.

In one test the target is Protein Wnt-3a (Mus musculus, UniProt P27467). Put plainly: Wnt3a-driven reporter signaling inhibition, dose response, selectivity assay for Gli-SUFU antagonist project, Wnt-LIGHT cells, luminescence (AID 651570).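 Further: Wnt-LIGHT reporter cells stimulated with conditioned medium from Wnt3a-producing cells.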 The following applies: read-out: IC50_Mean. Type of test: functional.
Protein Wnt-3a, sequence (P27467 whole entry): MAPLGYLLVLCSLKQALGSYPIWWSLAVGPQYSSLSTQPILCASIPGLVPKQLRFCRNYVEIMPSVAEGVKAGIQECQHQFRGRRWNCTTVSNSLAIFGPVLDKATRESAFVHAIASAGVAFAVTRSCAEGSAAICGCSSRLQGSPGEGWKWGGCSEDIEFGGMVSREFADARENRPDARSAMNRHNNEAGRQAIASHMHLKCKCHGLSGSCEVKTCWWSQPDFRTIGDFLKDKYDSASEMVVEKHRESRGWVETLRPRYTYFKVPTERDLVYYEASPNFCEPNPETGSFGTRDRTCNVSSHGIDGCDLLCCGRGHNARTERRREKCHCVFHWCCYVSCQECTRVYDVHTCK
A further test relates to Vero. In words: cells. Type of test: functional. The following applies: Chlorocebus sabaeus.
Test [1] is described as follows: nonselective inhibitors of cellular cAMP signaling, dose response, counter-screen for MC4R biased antagonist project, cell-based, TR-FRET cAMP detection (AID 602305).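 Further: U2OS cells stimulated with forskolin near its EC80 as the cAMP inducer; potency is for inhibition of forskolin-stimulated cAMP signaling.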 Type of test: functional. (In general: The purpose of a counterscreen is to sort out artefacts and off-target activity.)
The next test addresses Melanocortin receptor 4 (Homo sapiens, UniProt P32245). In words: MC4R antagonist potency on cAMP, dose response, cell-based, TR-FRET, biased antagonists (AID 602298).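 Further: antagonist potency against agonist-stimulated cAMP production.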 Type of test: functional. On the technique in general: Time-resolved FRET reads energy transfer from a long-lived donor to a nearby acceptor.
Test [2] can be described thus: cytotoxicity toward DRD oncogenic fibroblasts, dose response, cell-based, non-viral oncogenic, luminescence (AID 1934). Type of test: functional. Particulars: Homo sapiens.
Test [3] has as its system BJ. Put plainly: cytotoxicity toward Ras-transformed BJeLR fibroblasts, dose response, cell-based, alamar blue fluorescence, cherrypicked samples (AID 2631).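 Further: confirmatory dose-response assay in RAS-dependent BJ fibroblasts engineered with TERT, LT and ST, with cytotoxicity read by fluorescence.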 Type of test: functional. Particulars: Homo sapiens. On the technique in general: Alamar Blue is a resazurin reagent that responds to reducing activity.
For test [4], the system named is BJ. In words: cells. Type of test: functional, cell-based. Particulars: Homo sapiens.
Test [5] has as its system BJ. Put plainly: cytotoxicity toward BJ-TERT-LT-ST fibroblasts, dose response, cell-based, RAS-independent, luminescence (AID 1935).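 Further: BJ fibroblasts immortalized with TERT plus LT and ST oncogenes.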 Type of test: functional. The following applies: Homo sapiens.
The test system of a further test is INS1. Put plainly: beta cell apoptosis inhibitors, cytokine rescue, dose response, luminescence, retest (AID 449756).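 Further: cell death triggered by IL-1 beta plus TNF-alpha plus IFN-gamma mixture; protective hits raise ATP signal compared with cytokine alone wells.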 Particulars: Rattus norvegicus. Type of test: functional, cell-based.
The test system of test [6] is BJ. Put plainly: cytotoxicity toward BJ-TERT fibroblasts, dose response, cell-based, RAS-independent, luminescence (AID 1933). Type of test: functional. The following applies: Homo sapiens.
A short description of another test: cells. Type of test: functional.
The nature of test [7]: THP-1 cell cytotoxicity, dose response, cytotoxicity control for non-replicating M. tuberculosis project (AID 489025). Type of test: functional.
Test [8] concerns the target Dual specificity tyrosine-phosphorylation-regulated kinase 1A (Rattus norvegicus, UniProt Q63470). Type of test: biochemical, Homo sapiens.
In test [9] the target is T1, Rac GTPase-activating protein 1 (Homo sapiens, UniProt Q9H0H5).
T1 sequence (Q9H0H5 whole entry): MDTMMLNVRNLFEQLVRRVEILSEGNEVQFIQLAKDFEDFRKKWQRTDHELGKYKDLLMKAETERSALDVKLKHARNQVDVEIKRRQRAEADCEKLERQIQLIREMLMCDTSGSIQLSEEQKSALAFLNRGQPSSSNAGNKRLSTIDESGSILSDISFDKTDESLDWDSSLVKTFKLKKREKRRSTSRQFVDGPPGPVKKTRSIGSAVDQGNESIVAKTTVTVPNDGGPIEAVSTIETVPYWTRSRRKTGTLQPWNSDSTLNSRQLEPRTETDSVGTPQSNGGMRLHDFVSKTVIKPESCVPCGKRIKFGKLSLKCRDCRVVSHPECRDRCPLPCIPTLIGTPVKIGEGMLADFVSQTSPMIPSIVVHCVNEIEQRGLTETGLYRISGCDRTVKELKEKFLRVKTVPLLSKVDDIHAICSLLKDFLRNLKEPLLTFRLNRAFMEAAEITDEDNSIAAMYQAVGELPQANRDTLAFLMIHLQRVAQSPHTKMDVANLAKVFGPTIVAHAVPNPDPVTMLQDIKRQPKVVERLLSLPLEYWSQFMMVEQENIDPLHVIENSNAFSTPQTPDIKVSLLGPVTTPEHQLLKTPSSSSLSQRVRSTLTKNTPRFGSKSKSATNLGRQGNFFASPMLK
Put plainly: MgcRacGAP GTPase-activating activity inhibitors, confirmation, biochemical, ADP Hunter fluorescence, primary and confirmatory (AID 624330). Type of test: functional.

Test [10] deals with T2, Short transient receptor potential channel 4 (Mus musculus, UniProt Q9QUQ5).
T2 sequence (Q9QUQ5 whole entry): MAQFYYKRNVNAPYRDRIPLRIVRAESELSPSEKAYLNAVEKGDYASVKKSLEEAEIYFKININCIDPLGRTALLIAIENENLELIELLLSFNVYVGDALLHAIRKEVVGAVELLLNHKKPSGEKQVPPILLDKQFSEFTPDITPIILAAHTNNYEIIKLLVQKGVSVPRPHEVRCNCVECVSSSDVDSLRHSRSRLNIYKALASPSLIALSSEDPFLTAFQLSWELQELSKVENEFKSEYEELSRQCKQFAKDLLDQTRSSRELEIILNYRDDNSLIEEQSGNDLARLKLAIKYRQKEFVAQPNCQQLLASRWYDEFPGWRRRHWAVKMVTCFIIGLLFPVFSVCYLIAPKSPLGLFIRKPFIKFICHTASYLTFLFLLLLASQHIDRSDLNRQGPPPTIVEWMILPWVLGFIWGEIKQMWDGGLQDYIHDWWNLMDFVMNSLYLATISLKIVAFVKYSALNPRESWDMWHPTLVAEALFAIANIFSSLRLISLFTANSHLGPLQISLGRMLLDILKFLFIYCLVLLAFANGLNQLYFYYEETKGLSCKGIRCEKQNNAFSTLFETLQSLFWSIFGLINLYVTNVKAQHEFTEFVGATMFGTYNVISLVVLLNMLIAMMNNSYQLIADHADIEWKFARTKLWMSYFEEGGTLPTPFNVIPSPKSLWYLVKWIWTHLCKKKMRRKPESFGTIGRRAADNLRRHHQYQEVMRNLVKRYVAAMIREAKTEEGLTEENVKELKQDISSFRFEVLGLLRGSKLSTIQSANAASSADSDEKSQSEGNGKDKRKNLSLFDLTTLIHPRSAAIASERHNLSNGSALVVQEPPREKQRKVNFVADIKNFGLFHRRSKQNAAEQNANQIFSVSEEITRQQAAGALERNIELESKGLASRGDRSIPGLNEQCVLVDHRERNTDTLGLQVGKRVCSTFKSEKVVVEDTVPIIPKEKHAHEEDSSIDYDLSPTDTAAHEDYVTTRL
In words: mouse TRPC4 channel inhibitors, dose response, cell-based, HEK293 TRPC4/mu-opioid, Fluo-4 calcium (AID 434942).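 Further: potency of inhibitors blocking the TRPC4 calcium response.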 Type of test: functional.

In test [11] the target is FAD-linked sulfhydryl oxidase ALR (Homo sapiens, UniProt P55789). In words: inhibitors of human ALR sulfhydryl oxidase, dose response, biochemical, H2O2 detection, luminescence, cherry-pick (AID 493248).
FAD-linked sulfhydryl oxidase ALR, sequence (P55789 whole entry): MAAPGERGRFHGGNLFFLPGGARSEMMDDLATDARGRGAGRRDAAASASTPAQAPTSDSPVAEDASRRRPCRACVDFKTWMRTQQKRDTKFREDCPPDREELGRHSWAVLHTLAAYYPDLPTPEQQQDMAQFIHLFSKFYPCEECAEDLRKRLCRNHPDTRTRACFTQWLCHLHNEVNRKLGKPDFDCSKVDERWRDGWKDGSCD
A further test has as its system HEK293. Put plainly: inhibitors of LMP1-driven NF-kB reporter, dose response, cell-based, HEK293, luciferase, cherry-pick (AID 588343). Type of test: functional. The following applies: Homo sapiens.
The target in test [12] is Glucose-6-phosphate 1-dehydrogenase (Homo sapiens, UniProt P11413). In words: human G6PD enzyme inhibitors, dose response, selectivity assay for P. falciparum G6PD inhibitor project, biochemical, fluorescence (AID 504792). Type of test: functional.
Glucose-6-phosphate 1-dehydrogenase, sequence (P11413 whole entry): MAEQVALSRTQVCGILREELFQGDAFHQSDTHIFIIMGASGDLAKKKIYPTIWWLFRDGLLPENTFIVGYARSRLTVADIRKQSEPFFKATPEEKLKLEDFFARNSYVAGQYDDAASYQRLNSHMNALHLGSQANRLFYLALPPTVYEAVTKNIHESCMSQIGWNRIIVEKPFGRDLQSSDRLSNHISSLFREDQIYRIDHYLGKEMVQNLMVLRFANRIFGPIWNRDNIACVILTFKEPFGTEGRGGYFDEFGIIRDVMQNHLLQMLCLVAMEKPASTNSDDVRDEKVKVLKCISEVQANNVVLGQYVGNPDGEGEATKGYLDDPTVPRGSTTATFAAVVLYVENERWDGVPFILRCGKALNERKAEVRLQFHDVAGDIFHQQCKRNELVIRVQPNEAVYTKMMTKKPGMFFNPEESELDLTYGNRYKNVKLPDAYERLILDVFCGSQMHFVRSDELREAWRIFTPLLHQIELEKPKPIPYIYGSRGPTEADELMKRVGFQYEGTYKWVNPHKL
A short description of test [13]: inhibitors of SNCA 5'UTR-driven reporter translation, confirmation, H4 neuroglioma cells, luminescence (AID 1988). Type of test: functional, cell-based.
A short description of test [14]: Luminescence Cell-Based Dose Response HTS to Identify Inhibitors of 5'UTR Stem-Loop Driven Prion Protein mRNA Translation in H4 Neuroglioblastoma Cells. [Related pubchem assays: 1827 (Project Summary), 1813 (Primary HTS)]. Type of test: functional.
Test [15] addresses Luciferin 4-monooxygenase (Photinus pyralis, UniProt P08659). In words: firefly luciferase enzyme inhibitors, dose response, biochemical, luminescence (AID 1891).
The nature of test [16]: Luminescence Cell-Based Dose Confirmation HTS to Identify Inhibitors of Platelet Dense Granule Release. [Related pubchem assays: 1663 (Primary HTS), 1678 (Summary of Project)]. Type of test: functional.
Test [17] addresses T3, RNA-binding protein pos-1 (Caenorhabditis elegans, UniProt G5EF15).
T3 sequence (G5EF15 whole entry): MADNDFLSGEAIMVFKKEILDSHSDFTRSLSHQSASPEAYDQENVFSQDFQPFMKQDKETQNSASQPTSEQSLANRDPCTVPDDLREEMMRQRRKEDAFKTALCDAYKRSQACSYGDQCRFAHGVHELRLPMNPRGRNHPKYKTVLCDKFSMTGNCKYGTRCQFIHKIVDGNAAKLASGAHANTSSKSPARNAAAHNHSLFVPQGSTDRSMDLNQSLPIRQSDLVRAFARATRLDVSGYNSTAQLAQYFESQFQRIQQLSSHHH
Put plainly: inhibitors of POS-1/mex-3 RNA binding, dose response, biochemical, fluorescence polarization (AID 1964).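 Further: purified POS-1 fused to maltose binding protein made in E. coli; potency of compounds blocking POS-1 binding to fluorescent RNA.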

Test [18] has as its target T4, Zinc finger protein mex-5 (Caenorhabditis elegans, UniProt Q9XUB2).
T4 sequence (Q9XUB2 whole entry): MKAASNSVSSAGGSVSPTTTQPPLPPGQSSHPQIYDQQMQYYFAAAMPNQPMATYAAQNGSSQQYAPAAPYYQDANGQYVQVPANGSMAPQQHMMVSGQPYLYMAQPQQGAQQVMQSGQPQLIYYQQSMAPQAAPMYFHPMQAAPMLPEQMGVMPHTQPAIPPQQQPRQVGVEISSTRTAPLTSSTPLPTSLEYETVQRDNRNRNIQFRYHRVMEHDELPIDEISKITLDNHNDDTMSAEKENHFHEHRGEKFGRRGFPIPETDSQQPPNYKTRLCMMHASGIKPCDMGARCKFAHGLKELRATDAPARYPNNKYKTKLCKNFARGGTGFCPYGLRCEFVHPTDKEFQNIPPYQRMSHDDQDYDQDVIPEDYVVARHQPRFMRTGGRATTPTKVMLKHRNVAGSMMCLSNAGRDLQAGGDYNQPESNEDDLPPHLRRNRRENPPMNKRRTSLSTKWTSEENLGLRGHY
Put plainly: MEX-5/TCR-2 RNA interaction inhibitors, dose response, biochemical, C. elegans, fluorescence polarization (AID 1960).

Melanocortin receptor 4, sequence (P32245 whole entry): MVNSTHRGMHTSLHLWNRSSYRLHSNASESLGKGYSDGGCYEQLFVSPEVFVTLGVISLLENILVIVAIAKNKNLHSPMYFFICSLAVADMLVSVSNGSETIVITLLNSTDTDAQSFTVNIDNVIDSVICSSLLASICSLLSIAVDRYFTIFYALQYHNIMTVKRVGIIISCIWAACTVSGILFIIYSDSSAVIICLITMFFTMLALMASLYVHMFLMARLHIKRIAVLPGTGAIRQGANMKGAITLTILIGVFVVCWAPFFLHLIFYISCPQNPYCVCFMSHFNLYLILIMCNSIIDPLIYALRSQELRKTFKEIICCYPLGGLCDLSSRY
Luciferin 4-monooxygenase, sequence (P08659 whole entry): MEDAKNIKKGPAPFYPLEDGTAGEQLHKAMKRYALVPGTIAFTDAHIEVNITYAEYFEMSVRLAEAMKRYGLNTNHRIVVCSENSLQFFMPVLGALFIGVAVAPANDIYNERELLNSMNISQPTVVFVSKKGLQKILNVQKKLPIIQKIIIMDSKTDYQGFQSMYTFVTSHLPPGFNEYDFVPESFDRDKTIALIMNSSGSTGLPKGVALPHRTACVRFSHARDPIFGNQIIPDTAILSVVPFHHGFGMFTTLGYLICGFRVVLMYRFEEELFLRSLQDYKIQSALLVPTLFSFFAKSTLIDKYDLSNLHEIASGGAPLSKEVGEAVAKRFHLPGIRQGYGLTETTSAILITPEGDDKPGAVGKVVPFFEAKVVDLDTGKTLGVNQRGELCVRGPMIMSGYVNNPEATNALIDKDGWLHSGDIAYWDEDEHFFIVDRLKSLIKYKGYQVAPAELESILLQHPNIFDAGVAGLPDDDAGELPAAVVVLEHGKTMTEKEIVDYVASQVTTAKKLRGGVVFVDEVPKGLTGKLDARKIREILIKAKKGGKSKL

Turning to `COC(=O)c1cc(S(=O)(=O)N2CCC(c3cc(OC)ccc3OC)C2)c[nH]1` (stereo unspecified), the IC50 on Protein Wnt-3a is 7.87 µM (active).

For the compound `CN1C(=O)/C(=C\c2ccc(N3CCCCCC3)cc2)C(=O)NC1=S`, the half-maximal cytotoxic concentration (CC50) with Vero is 17.9 µM (active).

For the compound `COC(=O)c1c(NC(=O)CC2SCC(C(=O)OC)NC2=O)sc2c1CCCC2` (stereo unspecified), the IC50 (in test [1]; at Melanocortin receptor 4) was > 64.6 µM (inactive) in each case.

Take `O=C(NCc1cccnc1)c1ccc(-c2cc3ccccc3oc2=O)cc1`: the EC50 in test [2] is > 150 µM (not active); with BJ [3], 6.49 µM (active); in the test with BJ [4], 11.8 µM (inconclusive); in the test with BJ [5], 3.16 µM (active); in the test with BJ [6], 22.6 µM (active). Further, the AC50 in the test with INS1 was 3.61 µM (active).

Turning to `COc1cccc2[nH]c3c(Cl)ncnc3c12`, the IC50 was > 64.6 µM (inactive) in [1], > 50 µM (active) in the test “cells” and > 64.6 µM (inactive) on Melanocortin receptor 4. Moreover, the CC50 in [7] was 33.9 µM (active).

For `COc1cc(/C=C2\SC(N3CCC(C)CC3)=NC2=O)ccc1O`, the AC50 in [8] is 2.68 µM (active); in test [11], 0.929 µM (active). Further, in test [9], the IC50 was 16.3 µM (active). For the same compound, the EC50 in test [10] was 3.35 µM (active).

As to `O=C(CCl)N(CCCNC(=O)C(F)(F)F)c1ccc([N+](=O)[O-])cc1`, the EC50 in [2] was 4.66 µM (active); with BJ [3], 0.995 µM (active); with BJ [4] it was 4.39 µM (active); in the test on BJ [5], 11.6 µM (inconclusive); in the test with BJ [6], 2.53 µM (inconclusive).

On to `COc1ccc(-n2c(SC3CCOC3=O)nc3ccccc32)cc1` (stereo unspecified), for which the IC50 (in test [1]; at Melanocortin receptor 4) was > 64.6 µM (inactive) in each case.

On to `Cc1nn(-c2ccc(NC(=O)c3ccncc3)cc2)c(C)c1Cl`, for which the IC50 on Protein Wnt-3a is 3 µM (active).

As to `C/C(=C\[C@@H](NP(=O)(c1ccccc1)c1ccccc1)c1ccccc1)CO[Si](c1ccccc1)(c1ccccc1)C(C)(C)C`, in the test with Vero, the CC50 was > 25 µM (active).

On to `COc1cccc(C(=O)N2CCN(c3nc4cc(C)cc(C)c4cc3C#N)CC2)c1`, for which the AC50 in the test with HEK293 is 194 µM (active).

As for `C(=N\Nc1nc2ccccc2[nH]1)/c1ccccn1`, the IC50 in [12] was > 80 µM (inactive). For the same compound, the half-maximal effective concentration (EC50) in the test with BJ [3] was 1.99 µM (active); in test [13] it was 5.82 µM (active); in [14], 1.29 µM (active); in test [15], 1.16 µM (active); in [16], 4.15 µM (active); in test [17], 72.9 µM (active). Moreover, the EC50 in [18] was 41.7 µM (active).

The record behind these values is ChEMBL document CHEMBL1201862, “PubChem BioAssay data set” (2004).
